Data reported in patent US20240041042A1, “1-(PYRIDYL)-5-AZINYLPYRAZOLE DERIVATIVES, AND THEIR USE FOR CONTROL OF UNDESIRED PLANT GROWTH” (Bayer Aktiengesellschaft, priority 2020, published 2024).

Legend:
Type in all cases: in vivo
[1] = tested on: Alopecurus myosuroides (ALOMY); experiment: Pre-emergence herbicidal action against ALOMY; conditions: scored visually after about 3 weeks, 100% = plants have died
Method in brief: (§1)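 Seeds sown in pots and covered with soil; WP or EC formulations sprayed onto the soil surface at 600 l/ha water with 0.5% additive, at 320 g/ha or lower. Greenhouse growth for about 3 weeks, then visual scoring as % effect against untreated controls (100% = plants dead).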

[2] = tested on: Amaranthus retroflexus (AMARE); experiment: Pre-emergence herbicidal action against AMARE; conditions: visual scoring after about 3 weeks vs untreated controls
Method in brief: as §1

Avena fatua (AVEFA) [3] = experiment: Pre-emergence herbicidal action against AVEFA; conditions: visual scoring after about 3 weeks vs untreated controls
Method in brief: as §1

[4] = tested on: Echinochloa crus-galli (ECHCG); experiment: Pre-emergence herbicidal action against ECHCG
Method in brief: as §1

Lolium rigidum (LOLRI) [5] = experiment: Pre-emergence herbicidal action against LOLRI
Method in brief: as §1

[6] = tested on: Matricaria inodora (MATIN); experiment: Pre-emergence herbicidal action against MATIN; conditions: dosage 320 g/ha
Method in brief: as §1

[7] = tested on: Pharbitis purpurea (PHBPU); experiment: Pre-emergence herbicidal action against PHBPU; conditions: dosage 320 g/ha
Method in brief: as §1

[8] = tested on: Polygonum convolvulus (POLCO); experiment: Pre-emergence herbicidal action against POLCO
Method in brief: as §1

Setaria viridis (SETVI) [9] = experiment: Pre-emergence herbicidal action against SETVI
Method in brief: as §1

[10] = tested on: Verconica persica (VERPE); experiment: Pre-emergence herbicidal action against VERPE; conditions: dosage 320 g/ha
Method in brief: as §1

Viola tricolor (VIOTR) [11] = experiment: Pre-emergence herbicidal action against VIOTR
Method in brief: as §1

[12] = tested on: Abutilon theophrasti (ABUTH); experiment: Post-emergence herbicidal action against ABUTH; conditions: visual rating about 3 weeks after treatment vs untreated controls (100% = plants have died, 0% = like control plants)
Method in brief: (§2)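 Greenhouse plants sprayed at the one-leaf stage, 2–3 weeks after sowing, with WP or EC formulations plus 0.5% additive at 600 l/ha water. Activity rated visually after about 3 weeks versus untreated controls (100% = dead, 0% = like control), at 320 g/ha or lower.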

[13] = tested on: Alopecurus myosuroides (ALOMY); experiment: Post-emergence herbicidal action against ALOMY; conditions: visual rating about 3 weeks after treatment vs untreated controls (100% = plants have died, 0% = like control plants)
Method in brief: as §2

[14] = tested on: Amaranthus retroflexus (AMARE); experiment: Post-emergence herbicidal action against AMARE
Method in brief: as §2

Avena fatua (AVEFA) [15] = experiment: Post-emergence herbicidal action against AVEFA; conditions: visual rating about 3 weeks after treatment
Method in brief: as §2

[16] = tested on: Echinochloa crus-galli (ECHCG); experiment: Post-emergence herbicidal action against ECHCG
Method in brief: as §2

Lolium rigidum (LOLRI) [17] = experiment: Post-emergence herbicidal action against LOLRI
Method in brief: as §2

[18] = tested on: Matricaria inodora (MATIN); experiment: Post-emergence herbicidal action against MATIN
Method in brief: as §2

[19] = tested on: Pharbitis purpurea (PHBPU); experiment: Post-emergence herbicidal action against PHBPU; conditions: dosage 320 g/ha
Method in brief: as §2

[20] = tested on: Polygonum convolvulus (POLCO); experiment: Post-emergence herbicidal action against POLCO
Method in brief: as §2

Setaria viridis (SETVI) [21] = experiment: Post-emergence herbicidal action against SETVI
Method in brief: as §2

[22] = tested on: Verconica persica (VERPE); experiment: Post-emergence herbicidal action against VERPE
Method in brief: as §2

Viola tricolor (VIOTR) [23] = experiment: Post-emergence herbicidal action against VIOTR
Method in brief: as §2

Oryza sativa (ORYSA) = conditions: crop plant compatibility, 80 g/ha, effect in comparison to untreated controls
Method in brief: (§3)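 Test crops were treated 2 to 3 weeks after sowing, once they reached one leaf, by spraying compound in water with 0.5% additive at 600 l/ha. Visual scoring compared them with untreated controls roughly 3 weeks on, and appendices a, b and c denote different doses.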

Zea mays (ZEAMX) = conditions: crop plant compatibility, 80 g/ha, effect vs untreated controls
Method in brief: as §3

[24] = 80 g/ha, visual rating about 3 weeks after treatment vs untreated controls (100% = plants have died, 0% = like control plants)
[25] = 320 g/ha, visual rating about 3 weeks after treatment

COC(=O)COc1nn(-c2ncccc2F)c(-c2ccc(F)nc2)c1C1CC1 [Example I-42]
90%: Pre-emergence action against AMARE in % ([2]; 80 g/ha) | Pre-emergence action against PHBPU in % [7] | Pre-emergence action against POLCO in % ([8]; dosage 320 g/ha) | Post-emergence action against ABUTH in % ([12]; 80 g/ha) | Post-emergence action against ABUTH in % ([12]; 320 g/ha) | Post-emergence action against AMARE in % [14, 24] | Post-emergence action against AMARE in % [14, 25] | Post-emergence action against ECHCG in % ([16]; dosage 80 g/ha) | Post-emergence action against ECHCG in % ([16]; dosage 320 g/ha) | Post-emergence action against MATIN in % ([18]; dosage 320 g/ha) | Post-emergence action against PHBPU in % [19] | Post-emergence action against POLCO in % ([20]; dosage 320 g/ha) | Post-emergence action against SETVI in % (Setaria viridis (SETVI) [21]; dosage 80 g/ha) | Post-emergence action against SETVI in % (Setaria viridis (SETVI) [21]; dosage 320 g/ha) | Post-emergence action against VERPE in % ([22]; 320 g/ha, VERPE) | Post-emergence action against VERPE in % ([22]; dosage 80 g/ha) | Post-emergence action against VIOTR in % (Viola tricolor (VIOTR) [23]; 80 g/ha) | Post-emergence action against VIOTR in % (Viola tricolor (VIOTR) [23]; 320 g/ha)
80%: Post-emergence action against MATIN in % ([18]; dosage 80 g/ha) | Post-emergence action against POLCO in % ([20]; dosage 80 g/ha)
100%: Pre-emergence action against ALOMY ([1]; 80 g/ha) | Pre-emergence action against ALOMY ([1]; 320 g/ha) | Pre-emergence action against AMARE in % ([2]; 320 g/ha) | Pre-emergence action against AVEFA in % (Avena fatua (AVEFA) [3]; 320 g/ha) | Pre-emergence action against ECHCG in % ([4]; dosage 80 g/ha) | Pre-emergence action against ECHCG in % ([4]; dosage 320 g/ha) | Pre-emergence action against LOLRI in % (Lolium rigidum (LOLRI) [5]; dosage 320 g/ha) | Pre-emergence action against MATIN in % [6] | Pre-emergence action against SETVI in % (Setaria viridis (SETVI) [9]; dosage 80 g/ha) | Pre-emergence action against SETVI in % (Setaria viridis (SETVI) [9]; dosage 320 g/ha) | Pre-emergence action against VERPE in % [10] | Pre-emergence action against VIOTR in % (Viola tricolor (VIOTR) [11]; 320 g/ha, Viola tricolor) | Pre-emergence action against VIOTR in % (Viola tricolor (VIOTR) [11]; dosage 80 g/ha) | Post-emergence action against ALOMY in % ([13]; 80 g/ha) | Post-emergence action against ALOMY in % ([13]; 320 g/ha) | Post-emergence action against AVEFA in % (Avena fatua (AVEFA) [15]; 80 g/ha) | Post-emergence action against AVEFA in % (Avena fatua (AVEFA) [15]; 320 g/ha) | Post-emergence action against LOLRI in % (Lolium rigidum (LOLRI) [17]; dosage 80 g/ha) | Post-emergence action against LOLRI in % (Lolium rigidum (LOLRI) [17]; dosage 320 g/ha)

C[C@@H](Oc1nn(-c2ccccn2)c(-c2ccc(F)nc2)c1Cl)C(=O)NCC(=O)O [Example I-338]
80%: Pre-emergence action against MATIN in % [6] | Pre-emergence action against PHBPU in % [7] | Post-emergence action against AMARE in % [14, 24] | Post-emergence action against AMARE in % [14, 25] | Post-emergence action against ECHCG in % ([16]; dosage 320 g/ha) | Post-emergence action against POLCO in % ([20]; dosage 80 g/ha) | Post-emergence action against POLCO in % ([20]; dosage 320 g/ha) | Post-emergence action against VIOTR in % (Viola tricolor (VIOTR) [23]; 320 g/ha)
0%: Post-emergence action against ORYSA in % (Oryza sativa (ORYSA)) | Post-emergence action against ZEAMX in % (Zea mays (ZEAMX))
100%: Pre-emergence action against ALOMY ([1]; 80 g/ha) | Pre-emergence action against ALOMY ([1]; 320 g/ha) | Pre-emergence action against AMARE in % ([2]; 80 g/ha) | Pre-emergence action against AMARE in % ([2]; 320 g/ha) | Pre-emergence action against ECHCG in % ([4]; dosage 320 g/ha) | Pre-emergence action against LOLRI in % (Lolium rigidum (LOLRI) [5]; dosage 80 g/ha) | Pre-emergence action against LOLRI in % (Lolium rigidum (LOLRI) [5]; dosage 320 g/ha) | Pre-emergence action against POLCO in % ([8]; dosage 80 g/ha) | Pre-emergence action against POLCO in % ([8]; dosage 320 g/ha) | Pre-emergence action against SETVI in % (Setaria viridis (SETVI) [9]; dosage 80 g/ha) | Pre-emergence action against SETVI in % (Setaria viridis (SETVI) [9]; dosage 320 g/ha) | Pre-emergence action against VERPE in % [10] | Pre-emergence action against VIOTR in % (Viola tricolor (VIOTR) [11]; 320 g/ha, Viola tricolor) | Pre-emergence action against VIOTR in % (Viola tricolor (VIOTR) [11]; dosage 80 g/ha)
90%: Pre-emergence action against AVEFA in % (Avena fatua (AVEFA) [3]; 80 g/ha) | Pre-emergence action against AVEFA in % (Avena fatua (AVEFA) [3]; 320 g/ha) | Pre-emergence action against ECHCG in % ([4]; dosage 80 g/ha) | Post-emergence action against ALOMY in % ([13]; 320 g/ha) | Post-emergence action against AVEFA in % (Avena fatua (AVEFA) [15]; 320 g/ha) | Post-emergence action against LOLRI in % (Lolium rigidum (LOLRI) [17]; dosage 320 g/ha) | Post-emergence action against MATIN in % ([18]; dosage 320 g/ha) | Post-emergence action against SETVI in % (Setaria viridis (SETVI) [21]; dosage 80 g/ha) | Post-emergence action against SETVI in % (Setaria viridis (SETVI) [21]; dosage 320 g/ha) | Post-emergence action against VERPE in % ([22]; 320 g/ha, VERPE)
